What all share (format): cell-based
The test system of one assay is aggrecan core protein. Description: Aggrecan core protein by Western blot, bovine disc organ culture. To be noted: degenerated bovine discs, 2 weeks post Link N 1-8 treatment. The source says: (§1) The largest first 3-4 caudal discs were isolated from the tails of 24- to 30-month-old steers, as described previously (21,22). Briefly, the tails were dissected free of skin, muscles and ligaments, and pedicles for each segment were removed. The bone and the adjacent calcified part of the cartilaginous endplate were removed, so that the surface of the disc was soft and flexible without detectable calcified tissue. After the discs were rinsed in PBS supplemented with 1,000 U/mL penicillin, 1,000 μg/mL streptomycin and 0.25 μg/mL fungizone (GIBCO, Burlington, Canada), they were preconditioned for 3 days in sterile 80 mL specimen containers (STARPLEX Scientific, Etobicoke, Canada) containing 50 mL culture medium. (DMEM with 2 mM Glutamax and 25 mM Hepes, supplemented with 5% FBS, 100 U/mL penicillin, 100 μg/mL streptomycin, 50 μg/mL L-ascorbate). Degeneration was induced by a single injection of 100 μg trypsin (Sigma-Aldrich) dissolved in 75 μL PBS into the center of the disc using a 28 G½ needle (21) The needle was placed on top of the disc to measure the distance needed to reach the center and was then inserted to the same depth. […] The number of MSCs used was based on a study by Liebscher et al (23), which measured the cell density of healthy human discs. […]
(§2) The remaining nucleus pulposus (NP) tissue was collected and the wet weight was recorded (21). […]
For orientation: Immunoblotting shows a protein as a band on a membrane.

Assay [1] concerns bovine discs with trypsin-induced degeneration. Description: Proteoglycan (GAG, DMMB) concentration in bovine disc organ culture with trypsin-induced degeneration. To be noted: degenerated bovine discs, 2 weeks post Link N 1-8 treatment.
Text: as §1, with “L-ascorbate).” for “L-ascorbate). Degeneration was induced by a single injection of 100 μg trypsin (Sigma-Aldrich) dissolved in 75 μL PBS into the center of the disc using a 28 G½ needle (21) The needle was placed on top of the disc to measure the distance needed to reach the center and was then inserted to the same depth.”
as §2
Sulfated glycosaminoglycans (GAGs) were quantified in tissue extracts by a modified dimethyl methylene blue (DMMB) dye-binding assay (25,26). […]

The test system of the next assay is type II collagen. The experiment in a line: Type II collagen by Western blot, bovine disc organ culture. To be noted: degenerated bovine discs, 2 weeks post Link N 1-8 treatment.
Text: as §1, §2

The test system of assay [2] is bovine annulus fibrosus (AF) cells. Description: Proteoglycan synthesis by 35SO4 incorporation, cells in alginate beads. To be noted: 48 h. As to the method: (§3) Human and bovine IVDs were separated from the adjoining vertebral body and divided into NP and AF for bovine IVDs and NP and inner annulus fibrosus (iAF) for human IVDs. Tissue from the human outer annulus fibrosus (oAF) was not used for cell isolation in this study. Cells were enzymatically isolated from each region as previously described (63). Briefly, NP and AF tissues were dissected into approximately 2-mm thick pieces, washed twice in PBS containing 50 μg/mL gentamicin, […] and 0.25 μg/mL fungizone, then digested with 0.2% pronase for 1 h, followed by collagenase type IA at 0.01% for NP and 0.04% for AF tissue for 4 h in serum free DMEM.
(§4) To compare the metabolic response to the various Link N peptides, freshly isolated human and bovine cells from NP and AF regions were embedded in 1.2% alginate beads, as previously described (65). Cells in alginate beads were cultured at 37° C., 5% CO2 in DMEM, containing 4.5 g/L glucose and supplemented with 10% FCS, 25 mmol/L HEPES, 50 μg/mL gentamicin sulphate, 0.25 μg/mL fungizone, 50 μg/mL L-ascorbate, and 2 mmol/L GlutaMAX. The beads were stabilized for 7 days and cell viability was assessed by Live/Dead® assay prior to further treatment. 5 beads per well were then cultured in 48 well plates in the presence of equimolar concentrations of either Link N (1 μg/mL), R-Link N (1 μg/mL), S-Link N (1 μg/mL), Link N 1-8 (0.5 μg/mL) or Link N 9-16 (0.5 μg/mL) in 0.5 mL DMEM. 25 μCi/mL ^35SO4 was added to the medium to allow assessment of proteoglycan synthesis (66). In addition, beads were exposed for 48 h to IL-1β (10 ng/mL) alone, or to a combination of peptides and IL-1β (51). At the end of the culture period, medium was collected and dialyzed exhaustively against miliQ water at […] (Spectra/Por® 3), followed by cold chase with 1M MgSO4 for 2 h to remove any remaining unincorporated ^35SO4. The ^35SO4 incorporation was measured using a beta scintillation counter (Beckman Coulter LS6500, Beckman Coulter, Mississauga, Canada).

For assay [3], the system named is bovine nucleus pulposus (NP) cells. The assay is described as above. As to conditions: 48 h. Here is the method:
as §3, §4

The subject of assay [4] is human nucleus pulposus (NP) cells. The description is as above. As to conditions: 48 h. Here is the method: (§5) Human thoracolumbar spines were retrieved through the Transplant Quebec organ donation program. Discs were obtained from 7 donors, 1 male and 6 female, with a mean age of 29.6 years and an age range of 16 to 47 years (Table 1). Donors having had recent chemotherapy, radiation therapies to the spine, or significant long-standing paralysis were excluded from the study. Spine retrieval was performed within 8 h of death. Discs with calcification and loss of disc height were not included in the study. All procedures were approved by the institutional review board of the Montreal General Hospital.
as §3, §4

Assay [5] deals with human inner annulus fibrosus (iAF) cells. The assay is described as above. To be noted: human AF (iAF) cells, 48 h. Here is the method:
as §5, §3, §4

Setting [6] is: 16-mer peptides 1 μg/mL, 8-mer peptides 0.5 μg/mL, vs medium alone.
[7] abbreviates: IL-1β 10 ng/mL, vs IL-1-containing medium.

In the case of “DHLSDNYT [Link N 1-8, Link-N first 8 peptide residues]”, in the assay on aggrecan core protein, the aggrecan expression entry is recorded as “statistically significant increase”. In addition, the “proteoglycan synthesis (proteoglycan concentration in the discs)” value in assay [1] is listed as “statistically significant increase”. Also, in the assay on type II collagen, the “type II collagen expression” value was “statistically significant increase”. The “proteoglycan synthesis (35SO4 incorporation)” value is given as “statistically significant increase” in assay [2] (setting [6]), “statistically significant increase” in assay [3] (setting [6]), “significant increase” in assay [4] (setting [6]) and “significant increase” in assay [5] (setting [6]). Also, the “proteoglycan synthesis (35SO4 incorporation) in the presence of IL-1β” value in assay [2] (setting [7]) is on record as “significantly induced proteoglycan production to the same extent as native Link N”; in assay [3] (setting [7]), “significantly induced proteoglycan production to the same extent as native Link N”; in assay [4] (setting [7]), “significantly increased response”; in assay [5] (setting [7]), “significantly increased response”.

The record behind these values is patent US10202420B2, “Methods and compositions for treatment of cartilage and disc tissue pathologies” (THE ROYAL INSTITUTION FOR ADVANCEMENT OF LEARNING/MCGILL …, priority 2013, dated 2019).
